Here are results for 39 compounds from patent US7749996B2, “Heterotricyclic metalloprotease inhibitors” (Alantos Pharmaceutical Holdings, Inc., priority 2006, dated 2010).

For one test, the target named is T1, activated MMP-8 enzyme (Homo sapiens, UniProt P22894).
T1 construct: purchased Calbiochem 444229
Kind of test: Assay for determining MMP-8 inhibition (fluorescent substrate). The format is biochemical. As to conditions: Table 2, activity group. How it is done: The typical assay for MMP-8 activity is carried out in assay buffer comprised of 50 mM Tris, pH 7.5, 150 mM NaCl, 5 mM CaCl2 and 0.05% Brij-35. Different concentrations of tested compounds are prepared in assay buffer in 50 μL aliquots. […] The mixture of enzyme and compound in assay buffer is thoroughly mixed and incubated for 10 min at 37° C. […] The time-dependent increase in fluorescence is measured at the 320 nm excitation and 390 nm emission by an automatic plate multireader at 37° C. The IC50 values are calculated from the initial reaction rates.

For test [1], the target named is T2, catalytic domain of MMP-13 enzyme (Homo sapiens, UniProt P45452).
T2 construct: stock solution of catalytic domain of MMP-13 enzyme (produced by Alantos or commercially available from Invitek (Berlin), Cat.# 30100812); purchased Invitek (Berlin) 30100812
Description: Assay for determining MMP-13 inhibition (fluorescent substrate). Format: biochemical. Particulars: Table 1, activity group. The protocol:
The typical assay for MMP-13 activity is carried out in assay buffer comprised of 50 mM Tris, pH 7.5, 150 mM NaCl, 5 mM CaCl2 and 0.05% Brij-35. Different concentrations of tested compounds are prepared in assay buffer in 50 μL aliquots. […] The mixture of enzyme and compound in assay buffer is thoroughly mixed and incubated for 10 min at room temperature. […] The time-dependent increase in fluorescence is measured at the 320 nm excitation and 390 nm emission by automatic plate multireader. The IC50 values are calculated from the initial reaction rates.

What is called IC50 is the midpoint of a concentration-inhibition curve. Low values mean higher potency, high ones lower potency.

T1 sequence (P22894 101-467): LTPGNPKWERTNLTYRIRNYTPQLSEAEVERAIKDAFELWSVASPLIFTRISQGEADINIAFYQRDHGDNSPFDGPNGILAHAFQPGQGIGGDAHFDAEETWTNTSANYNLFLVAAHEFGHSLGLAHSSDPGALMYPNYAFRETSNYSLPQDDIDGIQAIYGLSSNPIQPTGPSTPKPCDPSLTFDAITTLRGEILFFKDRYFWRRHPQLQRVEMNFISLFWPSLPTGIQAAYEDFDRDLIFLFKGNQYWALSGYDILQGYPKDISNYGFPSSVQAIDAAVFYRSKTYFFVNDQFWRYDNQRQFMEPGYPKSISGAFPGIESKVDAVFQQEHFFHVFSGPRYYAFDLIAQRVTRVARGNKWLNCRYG

Consider `O=C1COc2ccc(CNC(=O)c3nc4sc5c(c4c(=O)[nH]3)CCCCC5)cc2N1` [2/117], for which the IC50 is below 250 nM against activated MMP-8 enzyme and below 100 nM in test [1].
The corresponding values for `Nc1c(N2CCc3ccc(CNC(=O)c4nc5sc6c(c5c(=O)[nH]4)CCCCC6)cc3C2)c(=O)c1=O` [2/118] are below 250 nM and below 100 nM.
On to `O=C1COc2ccc(CNC(=O)c3nc4sc5c(c4c(=O)[nH]3)CCS5)cc2N1` [2/121], for which the IC50 against activated MMP-8 enzyme is below 250 nM; in test [1], below 100 nM.
Regarding `Nc1c(N2CCc3ccc(CNC(=O)c4nc5sc6c(c5c(=O)[nH]4)CCS6)cc3C2)c(=O)c1=O` [2/122], the figures for the IC50 (against activated MMP-8 enzyme; in test [1]) were below 250 nM and below 100 nM, respectively.
For `O=C1COc2ccc(CNC(=O)c3nc4sc5c(c4c(=O)[nH]3)CCCCCC5)cc2N1` [2/125], the IC50 against activated MMP-8 enzyme is below 250 nM; in test [1], below 100 nM.
In the case of `Nc1c(N2CCc3ccc(CNC(=O)c4nc5sc6c(c5c(=O)[nH]4)CCCCCC6)cc3C2)c(=O)c1=O` [2/126], the values for the IC50 (against activated MMP-8 enzyme; in test [1]) were below 250 nM and below 100 nM, respectively.
For the compound `COc1cccc(CNC(=O)c2nc3sc4c(c3c(=O)[nH]2)CCS(=O)(=O)C4)c1` [2/129], the IC50 against activated MMP-8 enzyme is 250 to 20000 nM; in test [1] it was below 100 nM.
The corresponding values for `Cc1cc(CNC(=O)c2nc3sc4c(c3c(=O)[nH]2)CCS(=O)(=O)C4)ccc1F` [2/130] are 250 to 20000 nM and 100 to 20000 nM.
`CC1SCc2sc3nc(C(=O)NCc4ccc5c(c4)NC(=O)CO5)[nH]c(=O)c3c21` (stereo not drawn) [2/131]: the IC50 against activated MMP-8 enzyme is below 250 nM; in test [1], below 100 nM.
For `O=C1COc2ccc(CNC(=O)c3nc4sc5c(c4c(=O)[nH]3)CCOC5)cc2N1` [2/152], in that order: below 250 nM and below 100 nM.
For `Nc1c(N2CCc3ccc(CNC(=O)c4nc5sc6c(c5c(=O)[nH]4)CCOC6)cc3C2)c(=O)c1=O` [2/153], in that order: below 250 nM and below 100 nM.
Regarding `O=C1COc2ccc(CNC(=O)c3nc4sc5c(c4c(=O)[nH]3)C(C(=O)NCc3ccccc3)CC5)cc2N1` (stereo not drawn) [2/167], the IC50 against activated MMP-8 enzyme was below 250 nM; in test [1] it was below 100 nM.
The corresponding values for `COC(=O)c1ccc(CNC(=O)C2CCc3sc4nc(C(=O)NCc5ccc6c(c5)NC(=O)CO6)[nH]c(=O)c4c32)cc1` (stereo not drawn) [2/169] are below 250 nM and below 100 nM.
Take `CS(=O)(=O)c1ccc(CNC(=O)C2CCc3sc4nc(C(=O)NCc5ccc6c(c5)NC(=O)CO6)[nH]c(=O)c4c32)cc1` (stereo not drawn) [2/170]: the IC50 is below 250 nM at activated MMP-8 enzyme and below 100 nM in test [1].
Consider `CN(C)C(=O)C1CCc2sc3nc(C(=O)NCc4ccc5c(c4)NC(=O)CO5)[nH]c(=O)c3c21` (stereo not drawn) [2/173], for which the half-inhibitory concentration (IC50) against activated MMP-8 enzyme is 250 to 20000 nM; in test [1] it was below 100 nM.
The corresponding values for `Cc1ccc(CNC(=O)C2CCc3sc4nc(C(=O)NCc5ccc6c(c5)NC(=O)CO6)[nH]c(=O)c4c32)cc1` (stereo not drawn) [2/174] are below 250 nM and below 100 nM.
`CC(NC(=O)C1CCc2sc3nc(C(=O)NCc4ccc5c(c4)NC(=O)CO5)[nH]c(=O)c3c21)c1ccccc1` (stereo not drawn) [2/175]: the values for the IC50 (against activated MMP-8 enzyme; in test [1]) were below 250 nM and below 100 nM, respectively.
Regarding `Cc1cc(CNC(=O)C2CCc3sc4nc(C(=O)NCc5ccc6c(c5)NC(=O)CO6)[nH]c(=O)c4c32)ccc1F` (stereo not drawn) [2/176], the IC50 is below 250 nM at activated MMP-8 enzyme and below 100 nM in test [1].
As for `CC(C)(C)OC(=O)CNC(=O)C1CCc2sc3nc(C(=O)NCc4ccc5c(c4)NC(=O)CO5)[nH]c(=O)c3c21` (stereo not drawn) [2/224], the figures for the IC50 (at activated MMP-8 enzyme; in test [1]) were below 250 nM and below 100 nM, respectively.
For `C#CCNC(=O)CC1CCCc2sc3nc(C(=O)NCc4ccc5c(c4)NC(=O)CO5)[nH]c(=O)c3c21` (stereo not drawn) [2/251], the IC50 on activated MMP-8 enzyme is below 250 nM; in test [1], below 100 nM.
`NC(=O)CNC(=O)C1CCc2sc3nc(C(=O)NCc4ccc5c(c4)NC(=O)CO5)[nH]c(=O)c3c21` (stereo not drawn) [2/255]: the IC50 is below 250 nM on activated MMP-8 enzyme and below 100 nM in test [1].
`NC(=O)C1CCCCc2sc3nc(C(=O)NCc4ccc5c(c4)NC(=O)CO5)[nH]c(=O)c3c21` (stereo not drawn) [2/267]: the IC50 against activated MMP-8 enzyme was below 250 nM; in test [1], below 100 nM.
As to `O=C(NCc1ccc(F)cc1)c1nc2sc3c(c2c(=O)[nH]1)CCC3` [2/290], the IC50 is 250 to 20000 nM against activated MMP-8 enzyme and below 100 nM in test [1].
Regarding `O=C(NCc1cccc(F)c1)c1nc2sc3c(c2c(=O)[nH]1)CCC3` [2/292], the IC50 lay within 250 to 20000 nM against activated MMP-8 enzyme and 100 to 20000 nM in test [1].
Consider `Cc1cc(CNC(=O)c2nc3sc4c(c3c(=O)[nH]2)CCC4)ccc1F` [2/313], for which the IC50 at activated MMP-8 enzyme was below 250 nM; in test [1], below 100 nM.
For `COC(=O)c1cccc(CNC(=O)c2nc3sc4c(c3c(=O)[nH]2)CCC4)c1` [2/316], in that order: 250 to 20000 nM and below 100 nM.
As for `Cc1cccc(CNC(=O)c2nc3sc4c(c3c(=O)[nH]2)CCC4)c1` [2/383], the figures for the IC50 (at activated MMP-8 enzyme; in test [1]) were 250 to 20000 nM and 100 to 20000 nM, respectively.
Take `COc1ccc(CNC(=O)c2nc3sc4c(c3c(=O)[nH]2)CCC4)cc1` [2/384]: the figures for the IC50 (against activated MMP-8 enzyme; in test [1]) were 250 to 20000 nM and 100 to 20000 nM, respectively.
As to `Nc1c(NCc2cccc(CNC(=O)c3nc4sc5c(c4c(=O)[nH]3)CCC5)c2)c(=O)c1=O` [2/413], the values for the IC50 (against activated MMP-8 enzyme; in test [1]) were below 250 nM and below 100 nM, respectively.
For `Nc1c(NCc2cc(CNC(=O)c3nc4sc5c(c4c(=O)[nH]3)CCC5)ccc2F)c(=O)c1=O` [2/417], in that order: 250 to 20000 nM and below 100 nM.
`O=C(NCc1ccc2c(c1)OCCO2)c1nc2sc3c(c2c(=O)[nH]1)CCC3` [2/428]: the IC50 on activated MMP-8 enzyme lay in the range of 250 to 20000 nM; in test [1], 100 to 20000 nM.
Regarding `O=C(NCc1ccc(F)c(Cl)c1)c1nc2sc3c(c2c(=O)[nH]1)CCC3` [2/433], the results for the IC50 (on activated MMP-8 enzyme; in test [1]) were 250 to 20000 nM and 100 to 20000 nM, respectively.
Turning to `O=C(NCc1cccc(N2CCSCC2)c1)c1nc2sc3c(c2c(=O)[nH]1)CCC3` [2/528], the figures for the IC50 (against activated MMP-8 enzyme; in test [1]) were 250 to 20000 nM and below 100 nM, respectively.
Take `CS(=O)(=O)N1CCc2ccc(CNC(=O)c3nc4sc5c(c4c(=O)[nH]3)CCC5)cc2C1` [2/538]: the values for the IC50 (on activated MMP-8 enzyme; in test [1]) were 250 to 20000 nM and 100 to 20000 nM, respectively.
As for `Nc1c(N2CCc3ccc(CNC(=O)c4nc5sc6c(c5c(=O)[nH]4)CC(C(=O)O)C6)cc3C2)c(=O)c1=O` (stereo not drawn) [4/14], the IC50 on activated MMP-8 enzyme is below 250 nM; in test [1], below 100 nM.
As to `O=C1COc2ccc(CNC(=O)c3nc4cc5ccccc5cc4c(=O)[nH]3)cc2N1` [39/20], the IC50 at activated MMP-8 enzyme was 250 to 20000 nM; in test [1], 100 to 20000 nM.
For the compound `O=C1COc2ccc(CNC(=O)c3nc4sc5c(c4c(=O)[nH]3)CCC5)cc2N1` [Example 1], the IC50 was below 250 nM against activated MMP-8 enzyme and below 100 nM in test [1].
For `NC(=O)C1CCc2sc3nc(C(=O)NCc4ccc5c(c4)NC(=O)CO5)[nH]c(=O)c3c21` (stereo not drawn) [Example 2/166], the IC50 against activated MMP-8 enzyme was below 250 nM; in test [1] it was below 100 nM.
With `O=C1COc2ccc(CNC(=O)c3nc4sc5c(c4c(=O)[nH]3)CNC5)cc2N1` [Example 41], the IC50 was 250 to 20000 nM on activated MMP-8 enzyme and below 100 nM in test [1].
